Source: patent US10738056B2 (Aduro BioTech, Inc., priority 2017, dated 2020)

What was measured:
[1] = molecular target: Human cGAS amino acids 155-522 (Homo sapiens (Human), UniProt Q8N884); experiment: cGAS biochemical activity assay (ATP remaining, Kinase-Glo Max luminescence); settings: human cGAS 155-522, ATP remaining (Kinase-Glo Max); read-out: cGAS IC50
[2] = test system: cGAS/STING pathway in THP1 cells; experiment: THP1 cell-based cGAS/STING pathway activity assay (IRF-3-linked luciferase reporter); settings: Homo sapiens, THP-1
Summary of the method: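 THP1 cells carrying an IRF-3-driven luciferase reporter were read across a range of compound concentrations, and IC50 values were derived from these concentration responses; the assay upper limit was 100 μM.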

Human cGAS amino acids 155-522, sequence (Q8N884 157-522): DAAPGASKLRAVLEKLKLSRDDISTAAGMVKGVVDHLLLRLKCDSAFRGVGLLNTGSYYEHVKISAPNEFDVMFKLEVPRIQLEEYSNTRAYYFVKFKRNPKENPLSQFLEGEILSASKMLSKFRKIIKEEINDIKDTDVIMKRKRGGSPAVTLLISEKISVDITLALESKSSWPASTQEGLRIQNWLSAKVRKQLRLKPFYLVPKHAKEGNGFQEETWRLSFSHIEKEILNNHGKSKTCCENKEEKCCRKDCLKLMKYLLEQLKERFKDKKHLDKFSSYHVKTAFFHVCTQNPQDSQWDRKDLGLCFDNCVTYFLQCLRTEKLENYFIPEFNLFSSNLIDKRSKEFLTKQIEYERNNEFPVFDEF

Structure (SMILES)	IC50 [1]	IC50 [2]
COc1nc(N)nc2oc(-c3c(C)[nH]c4c(-c5ccccc5)c(C(F)(F)F)nn4c3=O)nc12 [Compound C1174, 6-(5-amino-7-methoxyoxazolo[5,4-d]pyrimidin-2-yl)-5-methyl-3-phenyl-2-(trifluoromethyl)pyrazolo[1,5-a]pyrimidin-7(4H)-one]	< 20 µM	> 100 µM
COc1cccc2oc(-c3c(COCC4CNC(=O)O4)[nH]c4c(-c5ccccc5)c(C(F)(F)F)nn4c3=O)nc12 (stereo not shown) [Compound C1177, 5-(((6-(4-methoxybenzo[d]oxazol-2-yl)-7-oxo-3-phenyl-2-(trifluoromethyl)-4,7-dihydropyrazolo[1,5-a]pyrimidin-5-yl)methoxy)methyl)oxazolidin-2-one]	< 20 µM	20 to 100 µM
COc1cccc2oc(-c3c(C(=O)NCCO)[nH]c4c(-c5ccccc5)c(C(F)(F)F)nn4c3=O)nc12 [Compound C1178, N-(2-hydroxyethyl)-6-(4-methoxybenzo[d]oxazol-2-yl)-7-oxo-3-phenyl-2-(trifluoromethyl)-4,7-dihydropyrazolo[1,5-a]pyrimidine-5-carboxamide]	< 20 µM	< 20 µM
COc1cccc2oc(-c3c(Cn4ccnc4)[nH]c4c(-c5ccccc5)c(C(F)(F)F)nn4c3=O)nc12 [Compound C1180, 5-((1H-imidazol-1-yl)methyl)-6-(4-methoxybenzo[d]oxazol-2-yl)-3-phenyl-2-(trifluoromethyl)pyrazolo[1,5-a]pyrimidin-7(4H)-one]	< 20 µM	> 100 µM
Cc1[nH]c2c(-c3ccccc3)c(C#N)nn2c(=O)c1-c1nc2cc(N)ccc2o1 [Compound C1181, 6-(5-aminobenzo[d]oxazol-2-yl)-5-methyl-7-oxo-3-phenyl-4,7-dihydropyrazolo[1,5-a]pyrimidine-2-carbonitrile]	< 20 µM	> 100 µM
COc1cccc2oc(-c3c(COCc4cnc[nH]4)[nH]c4c(-c5ccccc5)c(C(F)(F)F)nn4c3=O)nc12 [Compound C1182, 5-(((1H-imidazol-5-yl)methoxy)methyl)-6-(4-methoxybenzo[d]oxazol-2-yl)-3-phenyl-2-(trifluoromethyl)pyrazolo[1,5-a]pyrimidin-7(4H)-one]	< 20 µM	> 100 µM
CCc1[nH]c2c(-c3ccccc3)c(C(F)(F)F)nn2c(=O)c1-c1nc2c(OC)cccc2o1 [Compound C1183, 5-ethyl-6-(4-methoxybenzo[d]oxazol-2-yl)-3-phenyl-2-(trifluoromethyl)pyrazolo[1,5-a]pyrimidin-7(4H)-one]	< 20 µM	< 20 µM
COC[C@@H]1COC(c2c(C)[nH]c3c(-c4ccccc4)c(C(F)(F)F)nn3c2=O)=N1 [Compound C1184, (R)-6-(4-(methoxymethyl)-4,5-dihydrooxazol-2-yl)-5-methyl-3-phenyl-2-(trifluoromethyl)pyrazolo[1,5-a]pyrimidin-7(4H)-one]	< 20 µM	> 100 µM
COc1cccc2oc(-c3c(C(=O)NC4COC4)[nH]c4c(-c5ccccc5)c(C(F)(F)F)nn4c3=O)nc12 [Compound C1185, 6-(4-methoxybenzo[d]oxazol-2-yl)-N-(oxetan-3-yl)-7-oxo-3-phenyl-2-(trifluoromethyl)-4,7-dihydropyrazolo[1,5-a]pyrimidine-5-carboxamide]	< 20 µM	20 to 100 µM
COC(=O)[C@@H]1COC(c2c(C)[nH]c3c(-c4ccccc4)c(C(F)(F)F)nn3c2=O)=N1 [Compound C1187, methyl (S)-2-(5-methyl-7-oxo-3-phenyl-2-(trifluoromethyl)-4,7-dihydropyrazolo[1,5-a]pyrimidin-6-yl)-4,5-dihydrooxazole-4-carboxylate]	< 20 µM	> 100 µM
CCc1cccc2oc(-c3c(C)[nH]c4c(-c5ccccc5)c(C#N)nn4c3=O)nc12 [Compound C1188, 6-(4-ethylbenzo[d]oxazol-2-yl)-5-methyl-7-oxo-3-phenyl-4,7-dihydropyrazolo[1,5-a]pyrimidine-2-carbonitrile]	< 20 µM	< 20 µM
Cc1[nH]c2c(-c3ccccc3)c(C#N)nn2c(=O)c1-c1nc2ccc(N)cc2o1 [Compound C1193, 6-(6-aminobenzo[d]oxazol-2-yl)-5-methyl-7-oxo-3-phenyl-4,7-dihydropyrazolo[1,5-a]pyrimidine-2-carbonitrile]	< 20 µM	> 100 µM
COc1cccc2oc(-c3c(C(=O)NCC(O)C(F)(F)F)[nH]c4c(-c5ccccc5)c(C(F)(F)F)nn4c3=O)nc12 (stereo not shown) [Compound C1209, 6-(4-methoxybenzo[d]oxazol-2-yl)-7-oxo-3-phenyl-N-(3,3,3-trifluoro-2-hydroxypropyl)-2-(trifluoromethyl)-4,7-dihydropyrazolo[1,5-a]pyrimidine-5-carboxamide]	< 20 µM	> 100 µM

Continued, values first:

IC50 [1]	IC50 [2]	Structure (SMILES)
< 20 µM	> 100 µM	COc1cccc2oc(-c3c(C(=O)NC4CCOCC4)[nH]c4c(-c5ccccc5)c(C(F)(F)F)nn4c3=O)nc12 [Compound C1194, 6-(4-methoxybenzo[d]oxazol-2-yl)-7-oxo-3-phenyl-N-(tetrahydro-2H-pyran-4-yl)-2-(trifluoromethyl)-4,7-dihydropyrazolo[1,5-a]pyrimidine-5-carboxamide]
< 20 µM	> 100 µM	COc1cccc2oc(-c3c(C(=O)NCC(=O)O)[nH]c4c(-c5ccccc5)c(C(F)(F)F)nn4c3=O)nc12 [Compound C1195, (6-(4-methoxybenzo[d]oxazol-2-yl)-7-oxo-3-phenyl-2-(trifluoromethyl)-4,7-dihydropyrazolo[1,5-a]pyrimidine-5-carbonyl)glycine]
< 20 µM	20 to 100 µM	COc1cc(N)c(Cl)c2oc(-c3c(C)[nH]c4c(-c5ccccc5)c(C#N)nn4c3=O)nc12 [Compound C1202, 6-(6-amino-7-chloro-4-methoxybenzo[d]oxazol-2-yl)-5-methyl-7-oxo-3-phenyl-4,7-dihydropyrazolo[1,5-a]pyrimidine-2-carbonitrile]
< 20 µM	> 100 µM	COc1cc(CO)cc2oc(-c3c(C)[nH]c4c(-c5ccccc5)c(C#N)nn4c3=O)nc12 [Compound C1203, 6-(6-(hydroxymethyl)-4-methoxybenzo[d]oxazol-2-yl)-5-methyl-7-oxo-3-phenyl-4,7-dihydropyrazolo[1,5-a]pyrimidine-2-carbonitrile]
< 20 µM	> 100 µM	CSc1cccc2oc(-c3c(C)[nH]c4c(-c5ccccc5)c(C#N)nn4c3=O)nc12 [Compound C1204, 5-methyl-6-(4-(methylthio)benzo[d]oxazol-2-yl)-7-oxo-3-phenyl-4,7-dihydropyrazolo[1,5-a]pyrimidine-2-carbonitrile]
< 20 µM	> 100 µM	COc1c(Cl)ccc2oc(-c3c(C)[nH]c4c(-c5ccccc5)c(C#N)nn4c3=O)nc12 [Compound C1206, 6-(5-chloro-4-methoxybenzo[d]oxazol-2-yl)-5-methyl-7-oxo-3-phenyl-4,7-dihydropyrazolo[1,5-a]pyrimidine-2-carbonitrile]
< 20 µM	> 100 µM	C#Cc1nn2c(=O)c(-c3nc4c(OC)cccc4o3)c(C)[nH]c2c1-c1ccccc1 [Compound C1211, 2-ethynyl-6-(4-methoxybenzo[d]oxazol-2-yl)-5-methyl-3-phenylpyrazolo[1,5-a]pyrimidin-7(4H)-one]
